Measured values: patent publication US20220160842A1, “METHOD OF TREATING INFECTIVE ENDOCARDITIS” (priority 2019, published 2022)
Structures can show the parent of a compound that is named as a salt.

Columns and labels:
Experiment in all cases: MIC by broth microdilution
S. pneumoniae = assay type: cell-based, Streptococcus pneumoniae
Protocol: (§1) Minimal inhibitory concentrations (MICs) of exebacase against staphylococci were determined by broth microdilution (BMD) using a nonstandard antimicrobial susceptibility testing (AST) medium comprised of cation-adjusted Mueller Hinton broth (caMHB) supplemented with horse serum (Sigma Aldrich) and dithiothreitol (DTT; Sigma Aldrich) to final concentrations of 25% and 0.5 mM, respectively. This medium, referred to as caMHB-HSD, is approved for use in exebacase AST by the Clinical and Laboratory Standards Institute (CLSI) (CLSI. 2017, Jan. 16-17. AST Subcommittee Working Group Meetings and Plenary. AST Meeting Files & Resources, clsi.org/education/microbiology/ast/ast-meeting-files-resources/. Additional supplementation with 2.5% lysed red blood cells (Remel™, ThermoFisher) was included for analyses of streptococcal isolates, as recommended by CLSI. See CLSI, 2015. Methods for Dilution Antimicrobial Susceptibility Tests for Bacteria That Grow Aerobically, 10th Edition. Clinical and Laboratory Standards Institute, Wayne, Pa.
(§2) Daptomycin (Sigma Aldrich) and vancomycin hydrochloride (Sigma Aldrich) were tested following the reference BMD method for each. See CLSI. 2015. Methods for Dilution Antimicrobial Susceptibility Tests for Bacteria That Grow Aerobically, 10th Edition. Clinical and Laboratory Standards Institute, Wayne, Pa.

S. dysgalactiae = assay type: cell-based, Streptococcus dysgalactiae
Protocol: as §1, §2

S. anginosus = assay type: cell-based, Streptococcus anginosus
Protocol: as §1, §2

S. gallolyticus = assay type: cell-based, Streptococcus gallolyticus
Protocol: as §1, §2

S. warneri = assay type: cell-based, Staphylococcus warneri
Protocol: as §1, §2

S. salivarius = assay type: cell-based, Streptococcus salivarius
Protocol: as §1, §2

S. mutans = assay type: cell-based, Streptococcus mutans
Protocol: as §1, §2

S. capitis = assay type: cell-based, Staphylococcus capitis
Protocol: as §1, §2

S. haemolyticus = assay type: cell-based, Staphylococcus haemolyticus
Protocol: as §1, §2

S. agalactiae = assay type: cell-based, Streptococcus agalactiae
Protocol: as §1, §2

S. aureus (MSSA) = assay type: cell-based, Staphylococcus aureus
Protocol: as §1, §2

S. aureus (MRSA) = assay type: cell-based, Staphylococcus aureus
Protocol: as §1, §2

S. lugdunensis = assay type: cell-based, Staphylococcus lugdunensis
Protocol: as §1, §2

all staphylococci tested = assay type: cell-based
Protocol: as §2

S. mitis = assay type: cell-based, Streptococcus mitis
Protocol: as §1, §2

S. sanguinis = assay type: cell-based, Streptococcus sanguinis
Protocol: as §1, §2

S. gordonii = assay type: cell-based, Streptococcus gordonii
Protocol: as §1, §2

E. faecalis = assay type: cell-based, Enterococcus faecalis
Protocol: as §1, §2

S. oralis = assay type: cell-based, Streptococcus oralis
Protocol: as §1, §2

S. pyogenes = assay type: cell-based, Streptococcus pyogenes
Protocol: as §1, §2

CN[C@H](CC(C)C)C(=O)N[C@H]1C(=O)N[C@@H](CC(N)=O)C(=O)N[C@H]2C(=O)N[C@H]3C(=O)N[C@H](C(=O)N[C@H](C(=O)O)c4cc(O)cc(O)c4-c4cc3ccc4O)[C@H](O)c3ccc(c(Cl)c3)Oc3cc2cc(c3O[C@@H]2O[C@H](CO)[C@@H](O)[C@H](O)[C@H]2O[C@H]2C[C@](C)(N)[C@H](O)[C@H](C)O2)Oc2ccc(cc2Cl)[C@H]1O [VAN, vancomycin hydrochloride]
MIC Range (S. pneumoniae; S. pneumoniae, N=59): 0.25 to 0.5 µg/mL | MIC50 (S. pneumoniae; Streptococcus pneumoniae): 0.25 µg/mL | MIC90 (S. pneumoniae; Streptococcus pneumoniae): 0.5 µg/mL | MIC Range (S. dysgalactiae; S. dysgalactiae (group G), N=22): 0.25 to 1 µg/mL | MIC50 (S. dysgalactiae; Streptococcus dysgalactiae): 0.5 µg/mL | MIC90 (S. dysgalactiae; Streptococcus dysgalactiae): 0.5 µg/mL | MIC Range (S. anginosus; S. anginosus (viridans), N=10): 0.5 to 1 µg/mL | MIC50 (S. anginosus; Streptococcus anginosus): 0.5 µg/mL | MIC90 (S. anginosus; Streptococcus anginosus): 1 µg/mL | MIC Range (S. gallolyticus; S. gallolyticus (bovis), N=19): 0.25 to 0.5 µg/mL | MIC50 (S. gallolyticus; Streptococcus gallolyticus): 0.25 µg/mL | MIC90 (S. gallolyticus; Streptococcus gallolyticus): 0.5 µg/mL | MIC Range (S. warneri; S. warneri, N=23): 0.25 to 2 µg/mL | MIC50 (S. warneri; Staphylococcus warneri): 1 µg/mL | MIC90 (S. warneri; Staphylococcus warneri): 2 µg/mL | MIC Range (S. salivarius; S. salivarius (viridans), N=12): 0.25 to 0.5 µg/mL | MIC50 (S. salivarius; Streptococcus salivarius): 0.5 µg/mL | MIC90 (S. salivarius; Streptococcus salivarius): 0.5 µg/mL | MIC Range (S. mutans; S. mutans (viridans), N=22): 0.25 to 1 µg/mL | MIC50 (S. mutans; Streptococcus mutans): 1 µg/mL | MIC90 (S. mutans; Streptococcus mutans): 1 µg/mL | MIC Range (S. capitis; S. capitis, N=13): 0.5 to 2 µg/mL | MIC50 (S. capitis; Staphylococcus capitis): 1 µg/mL | MIC90 (S. capitis; Staphylococcus capitis): 1 µg/mL | MIC Range (S. haemolyticus; S. haemolyticus, N=36): 0.5 to 4 µg/mL | MIC50 (S. haemolyticus; Staphylococcus haemolyticus): 1 µg/mL | MIC90 (S. haemolyticus; Staphylococcus haemolyticus): 2 µg/mL | MIC Range (S. agalactiae; S. agalactiae (group B), N=97): 0.25 to 0.5 µg/mL | MIC50 (S. agalactiae; Streptococcus agalactiae): 0.5 µg/mL | MIC90 (S. agalactiae; Streptococcus agalactiae): 0.5 µg/mL | MIC Range (S. aureus (MSSA); S. aureus (MSSA), N=73): 0.5 to 1 µg/mL | MIC50 (S. aureus (MSSA); Staphylococcus aureus, MSSA): 1 µg/mL | MIC90 (S. aureus (MSSA); Staphylococcus aureus, MSSA): 1 µg/mL | MIC Range (S. aureus (MRSA); S. aureus (MRSA), N=74): 1 to 2 µg/mL | MIC50 (S. aureus (MRSA); Staphylococcus aureus, MRSA): 1 µg/mL | MIC90 (S. aureus (MRSA); Staphylococcus aureus, MRSA): 1 µg/mL | MIC Range (S. lugdunensis; S. lugdunensis, N=49): 0.5 to 2 µg/mL | MIC50 (S. lugdunensis; Staphylococcus lugdunensis): 1 µg/mL | MIC90 (S. lugdunensis; Staphylococcus lugdunensis): 1 µg/mL | MIC Range (all staphylococci tested): 0.5 to 4 µg/mL | MIC Range (S. mitis; S. mitis (viridans), N=18): 0.25 to 0.5 µg/mL | MIC50 (S. mitis; Streptococcus mitis): 0.5 µg/mL | MIC90 (S. mitis; Streptococcus mitis): 0.5 µg/mL | MIC Range (S. sanguinis; S. sanguinis (viridans), N=15): 0.5 to 2 µg/mL | MIC50 (S. sanguinis; Streptococcus sanguinis): 0.5 µg/mL | MIC90 (S. sanguinis; Streptococcus sanguinis): 0.5 µg/mL | MIC Range (S. gordonii; S. gordonii (viridans), N=11): 0.5 to 1 µg/mL | MIC50 (S. gordonii; Streptococcus gordonii): 0.5 µg/mL | MIC90 (S. gordonii; Streptococcus gordonii): 1 µg/mL | MIC Range (E. faecalis; E. faecalis (formerly group D), N=18): 0.5 to 2 µg/mL | MIC50 (E. faecalis; Enterococcus faecalis): 1 µg/mL | MIC90 (E. faecalis; Enterococcus faecalis): 2 µg/mL | MIC Range (S. oralis; S. oralis (viridans), N=15): 0.5 to 1 µg/mL | MIC50 (S. oralis; Streptococcus oralis): 0.5 µg/mL | MIC90 (S. oralis; Streptococcus oralis): 1 µg/mL | MIC Range (S. pyogenes; S. pyogenes (group A), N=100): 0.25 to 0.5 µg/mL | MIC50 (S. pyogenes; Streptococcus pyogenes): 0.5 µg/mL | MIC90 (S. pyogenes; Streptococcus pyogenes): 0.5 µg/mL
